Measured values from patent US10842152B2, “Isothiazolo-based bicycles, processes for their preparation and their use as herbicides and/or plant growth regulators” (Bayer CropScience Aktiengesellschaft, priority 2017, dated 2020).

Key:
MATIN [1] = experiment: Herbicidal effect pre-emergence; assay type: in vivo, Matricaria inodora; settings: 320 g/ha, visual grading after ca. 3 weeks vs untreated controls
Text: (§1) Seeds of mono- and dicotyledonous weed plants and crop plants are sown in wood-fiber pots in sandy loam and covered with soil. The compounds according to the invention, formulated in the form of wettable powders (WP) or as emulsifiable concentrates (EC), are then applied to the surface of the covering soil as aqueous suspension or emulsion, with the addition of 0.5% of an additive, at an application rate of 600 l of water/ha (converted).
(§2) Following treatment, the pots are placed in a greenhouse and kept under optimum growth conditions for the test plants. The visual grading of the damage to the test plants is carried out after ca. 3 weeks in comparison to untreated controls (herbicidal effect in percent (%): 100% effect=plants have died off, 0% effect=as control plants).

MATIN [2] = experiment: Herbicidal effect post-emergence; assay type: in vivo, Matricaria inodora; settings: 320 g/ha, visual grading after ca. 3 weeks (Table 7)
Text: (§3) Seeds of mono- and dicotyledonous weed plants and crop plants are sown in wood-fiber pots in sandy loam, covered with soil and grown in a greenhouse under controlled growth conditions. 2 to 3 weeks after sowing, the test plants are sprayed in the single-leaf stage. The compounds according to the invention, formulated in form of wettable powders (WP) or as emulsifiable concentrates (EC), are then sprayed onto the green plant parts as aqueous suspension or emulsion, with the addition of 0.5% of an additive, at an application rate of 600 l of water/ha (converted). After the test plants had been in the greenhouse for ca. 3 weeks under optimum growth conditions, the effect of the preparations is assessed visually in comparison with untreated controls (herbicidal effect in percent (%): 100% effect=plants have died off, 0% effect=as control plants).

Setaria viridis [3] = experiment: Herbicidal effect post-emergence; assay type: in vivo; settings: 320 g/ha
Text: (§4) Herbicidal activities of the compounds of the formulae (G1) or (G2) according to the invention were investigated against the following harmful plants: • ALOMY=Alopecurus myosuroides • ECHCG=Echinochloa crus-galli • SETVI=Setaria viridis • ABUTH=Abutilon theophrasti • AMARE=Amaranthus retroflexus • PHBPU=Pharbitis purpurea • POLCO=Polygonum convolvulus (=Fallopia convolvulus) • STEME=Stellaria media • VIOTR=Viola tricolor
as §3

Amaranthus retroflexus [4] = experiment: Herbicidal effect post-emergence; assay type: in vivo; settings: 320 g/ha
Text: as §4, §3

Pharbitis purpurea = experiment: Herbicidal effect post-emergence; assay type: in vivo; settings: 320 g/ha, visual grading after ca. 3 weeks (Table 7)
Text: as §4, §3

[5] = tested on: Polygonum convolvulus (=Fallopia convolvulus); experiment: Herbicidal effect post-emergence; assay type: in vivo; settings: 320 g/ha, visual grading after ca. 3 weeks (Table 7)
Text: as §4, §3

Stellaria media [6] = experiment: Herbicidal effect post-emergence; assay type: in vivo; settings: 320 g/ha, visual grading after ca. 3 weeks (Table 7)
Text: as §4, §3

Viola tricolor [7] = experiment: Herbicidal effect post-emergence; assay type: in vivo; settings: 320 g/ha
Text: as §4, §3

Setaria viridis [8] = experiment: Herbicidal effect pre-emergence; assay type: in vivo; settings: 320 g/ha, visual grading after ca. 3 weeks vs untreated controls
Text: as §4, §1, §2

Amaranthus retroflexus [9] = experiment: Herbicidal effect pre-emergence; assay type: in vivo; settings: 320 g/ha, visual grading after ca. 3 weeks vs untreated controls
Text: as §4, §1, §2

Stellaria media [10] = experiment: Herbicidal effect pre-emergence; assay type: in vivo; settings: 320 g/ha, visual grading after ca. 3 weeks vs untreated controls
Text: as §4, §1, §2

Alopecurus myosuroides = experiment: Herbicidal effect pre-emergence; assay type: in vivo; settings: 320 g/ha, visual grading after ca. 3 weeks vs untreated controls
Text: as §4, §1, §2

Viola tricolor [11] = experiment: Herbicidal effect pre-emergence; assay type: in vivo; settings: 320 g/ha, visual grading after ca. 3 weeks vs untreated controls
Text: as §4, §1, §2

[12] = visual grading after ca. 3 weeks (Table 7)
[13] = visual grading after ca. 3 weeks (Table 9)

Row | Structure (SMILES) | herbicidal effect MATIN (MATIN [1]) [%] | herbicidal effect MATIN (MATIN [2]) [%] | herbicidal effect SETVI (Setaria viridis [3]; [12]) [%] | herbicidal effect AMARE (Amaranthus retroflexus [4]; [12]) [%] | herbicidal effect PHBPU (Pharbitis purpurea) [%] | herbicidal effect POLCO [5] [%] | herbicidal effect STEME (Stellaria media [6]) [%] | herbicidal effect VIOTR (Viola tricolor [7]; [12]) [%] | herbicidal effect SETVI (Setaria viridis [8]) [%] | herbicidal effect AMARE (Amaranthus retroflexus [9]) [%] | herbicidal effect STEME (Stellaria media [10]) [%] | herbicidal effect ALOMY (Alopecurus myosuroides) [%] | herbicidal effect VIOTR (Viola tricolor [11]) [%] | herbicidal effect SETVI (Setaria viridis [3]; [13]) [%] | herbicidal effect AMARE (Amaranthus retroflexus [4]; [13]) [%] | herbicidal effect VIOTR (Viola tricolor [7]; [13]) [%]
1 | O=C(Nc1nsc2c(=O)n(CC3CCCCC3Cl)cc(Cl)c12)C(F)(F)C(F)(F)F (racemic) [Example I-161] | 100 | 80 | 100 | 100 | 100 | 100 | 100 | 100 | 100 | 100 | 100 | 100 | 100 | – | – | –
2 | Nc1nsc2c(=O)n(CC3CCCCC3)cc(Cl)c12 [Example I-064] | 100 | 100 | 100 | 100 | 100 | 100 | 100 | 100 | 100 | 100 | 100 | 100 | 100 | – | – | –
3 | O=C(Nc1nsc2c(=O)n(CC3CCCCC3)cc(Br)c12)C(F)(F)F [Example I-088] | 100 | – | – | – | – | – | – | – | 100 | 100 | 100 | 100 | 100 | 100 | 100 | 100
4 | Nc1nsc2c(=O)n(CC3CCCCC3)cc(Br)c12 [Example I-054, 3-amino-4-bromo-6-(cyclohexylmethyl)isothiazolo[5,4-c]pyridin-7-one] | 100 | – | – | – | – | – | – | – | 100 | 100 | 100 | 90 | 100 | 100 | 100 | 100
5 | CCC(=O)Nc1nsc2c(=O)n(CC3CCCCC3)c(CC)cc12 [Example I-029] | 90 | – | – | – | – | – | – | – | 90 | 100 | 90 | 90 | 100 | – | – | –
6 | O=C(Nc1nsc2c(=O)n(CC3CCCCC3Cl)cc(Cl)c12)C(F)(F)F (racemic) [Example I-171] | 100 | 90 | 100 | 100 | 100 | 100 | 100 | 100 | 100 | 100 | 100 | 100 | 100 | – | – | –
7 | O=C(Nc1nsc2c(=O)n(CC3CCCCC3)cc(Cl)c12)C(F)(F)F [Example I-086] | 100 | – | – | – | – | – | – | – | 100 | 100 | 100 | 100 | 100 | 100 | 100 | 100
8 | COCc1cc2c(N)nsc2c(=O)n1CC1CCCCC1 [Example I-028] | 90 | – | – | – | – | – | – | – | 100 | 90 | 100 | 90 | 100 | – | – | –
9 | Nc1nsc2c(=O)n(Cc3cc(F)c(F)cc3F)cc(Cl)c12 [Example I-136] | 90 | 100 | 90 | 100 | 100 | 100 | 100 | 100 | 100 | 100 | 100 | 100 | 100 | – | – | –
10 | O=C(Nc1nsc2c(=O)n(CC3CCCCC3)cc(Cl)c12)C(F)(F)C(F)(F)F [Example I-081] | 100 | – | – | – | – | – | – | – | 100 | 100 | 100 | 100 | 100 | 100 | 100 | 100
11 | CC(C)Cc1cc2c(NC(=O)C(F)(F)F)nsc2c(=O)n1CC1CCCCC1 [Example I-056] | – | – | – | – | – | – | – | – | 90 | 90 | – | – | 100 | 100 | 90 | 90
12 | C#Cc1cn(CC2CCCCC2)c(=O)c2snc(N)c12 [Example I-070] | – | – | – | – | – | – | – | – | 100 | 100 | – | – | 100 | 100 | 100 | 100
13 | C/C=C/c1cn(CC2CCCCC2)c(=O)c2snc(N)c12 [Example I-118] | – | – | – | – | – | – | – | – | 90 | 90 | – | – | 80 | 100 | 100 | 100
14 | CCC(=O)Nc1nsc2c(=O)n(CC3CCCCC3)c(CO)cc12 [Example I-048] | 90 | – | – | – | – | – | – | – | 100 | 100 | 100 | 80 | 100 | 100 | 100 | 100
15 | O=C(Nc1nsc2c(=O)n(CC3CCCCC3)cc(Br)c12)C(F)(F)C(F)(F)F [Example I-077] | 90 | – | – | – | – | – | – | – | 100 | 100 | 100 | 100 | 100 | 90 | 100 | 90
16 | C=Cc1cn(CC2CCCCC2)c(=O)c2snc(N)c12 [Example I-080] | – | – | – | – | – | – | – | – | 80 | 80 | – | – | 100 | 100 | 100 | 80
17 | CCC(=O)N(C(=O)CC)c1nsc2c(=O)n(CC3CCCCC3)cc(Br)c12 [Example I-079] | – | – | – | – | – | – | – | – | 100 | 100 | – | – | 100 | 90 | 100 | 100
18 | CC(C)(C)OC(=O)OC1CN(CC2CCCCC2)C(=O)c2snc(N)c21 (stereo not shown) [Example I-138] | 90 | – | – | – | – | – | – | – | 100 | 100 | 100 | 100 | 100 | 80 | 100 | 100
19 | O=C(Nc1nsc2c(=O)n(CC3CCCCC3)c(CO)cc12)C(F)(F)C(F)(F)F [Example I-047] | 90 | – | – | – | – | – | – | – | 90 | 100 | 100 | 80 | 100 | 90 | 90 | 100
